Results taken from patent US20220354963A1, “EXTRACELLULAR VESICLE LINKED TO MOLECULES AND USES THEREOF” (Codiak BioSciences, Inc., priority 2019, published 2022).

Legend:
STAT3 mRNA [1] = assay: STAT3 mRNA expression in IL-6 stimulated PANC-1 cells, branched DNA assay; type: cell-based, human; conditions: for STAT3 Inhibition 2 nM / STAT3 Inhibition 20 nM: 2 point DR data; for IC50: 5 point DR data, Lipofectamine2000 transfection, 48 hr, read-out: STAT3 PANC1 IC50 Prism
Protocol: (§1) The ASOs of the present disclosure were tested for their ability to reduce STAT3 mRNA expression in IL-6 stimulated PANC-1 cells. The PANC-1 cells were grown in cell culture media and seeded onto a 96 well plate at a density of 20,000 cells/well. ASOs were tested in two separate cohorts: 2 doses or 5 doses were given to the PANC-1 cells (See TABLE 3) at final concentrations of 20 nM and 2 nM, respectively. The assay used Lipofectamine2000 transfection and a 48 hr treatment cycle, with incubation at 37° C. and 5% C02. Analysis of the mRNA expression was then carried out using a branched DNA assay.

GAPDH = GAPDH inhibition in PANC-1 cells, same assay; type: cell-based, human; conditions: 2 point DR data
Protocol: as §1, with “The” for “The ASOs of the present disclosure were tested for their ability to reduce STAT3 mRNA expression in IL-6 stimulated PANC-1 cells. The”

STAT3 mRNA [2] = assay: STAT3 mRNA expression in IL-6 stimulated PANC-1 cells, branched DNA assay; type: cell-based, human; conditions: 5 point DR data
IL-1β = assay: In vivo peritonitis model, intraperitoneal LPS challenge, serum IL-1β; parameters: species or system mouse; conditions: pre-treatment intraperitoneally 1 hour prior to challenge; 3 hours post-challenge
Protocol: Intraperitoneal LPS challenge induces the production of IL-1β in mice, which can be detected in the systemic circulation 3 hours post-challenge.

128 (ACCCAGACGGGCATTCCTGT; chemistry not given here) [compound 128]
STAT3 Inhibition 2 nM (STAT3 mRNA [1]): 61.1
STAT3 Inhibition 20 nM (STAT3 mRNA [1]): 81.1
IC50 (STAT3 mRNA [1]): 3.56 nM
GAPDH Inhibition 20 nM (GAPDH): 19.00
STAT3 Max inihibition 24 nM (STAT3 mRNA [2]): 79.56

102 (TTGGCTCGATCCAGGAGTGT; chemistry not given here) [compound 102]
STAT3 Inhibition 2 nM (STAT3 mRNA [1]): 82.7
STAT3 Inhibition 20 nM (STAT3 mRNA [1]): 89.5
IC50 (STAT3 mRNA [1]): 0.473 nM
GAPDH Inhibition 20 nM (GAPDH): 16.00
STAT3 Max inihibition 24 nM (STAT3 mRNA [2]): 78.02

138 (CCATCTTAATGGGACTCACG; chemistry not given here) [compound 138]
STAT3 Inhibition 2 nM (STAT3 mRNA [1]): 53.0
STAT3 Inhibition 20 nM (STAT3 mRNA [1]): 86.8
IC50 (STAT3 mRNA [1]): 1.31 nM
GAPDH Inhibition 20 nM (GAPDH): 9.00
STAT3 Max inihibition 24 nM (STAT3 mRNA [2]): 85.33

103 (CTCCTGTTGGCTCGATCCAG; chemistry not given here) [compound 103]
STAT3 Inhibition 2 nM (STAT3 mRNA [1]): 82.5
STAT3 Inhibition 20 nM (STAT3 mRNA [1]): 95.8
IC50 (STAT3 mRNA [1]): 0.465 nM
GAPDH Inhibition 20 nM (GAPDH): 10.00
STAT3 Max inihibition 24 nM (STAT3 mRNA [2]): 89.93

130 (TGTAGCGTTTGTTGAGGCTC; chemistry not given here) [compound 130]
STAT3 Inhibition 2 nM (STAT3 mRNA [1]): 59.3
STAT3 Inhibition 20 nM (STAT3 mRNA [1]): 80.7
IC50 (STAT3 mRNA [1]): 1.68 nM
GAPDH Inhibition 20 nM (GAPDH): 13.00
STAT3 Max inihibition 24 nM (STAT3 mRNA [2]): 72.16

134 (CGCAGTCGTGTGTAGCGTTT; chemistry not given here) [compound 134]
STAT3 Inhibition 2 nM (STAT3 mRNA [1]): 54.3
STAT3 Inhibition 20 nM (STAT3 mRNA [1]): 82.8
IC50 (STAT3 mRNA [1]): 2.13 nM
GAPDH Inhibition 20 nM (GAPDH): 10.00
STAT3 Max inihibition 24 nM (STAT3 mRNA [2]): 77.94

137 (ATCTTAATGGGACTCACGGG; chemistry not given here) [compound 137]
STAT3 Inhibition 2 nM (STAT3 mRNA [1]): 53.0
STAT3 Inhibition 20 nM (STAT3 mRNA [1]): 87.4
IC50 (STAT3 mRNA [1]): 1.8 nM
GAPDH Inhibition 20 nM (GAPDH): −2.00
STAT3 Max inihibition 24 nM (STAT3 mRNA [2]): 79.46

133 (GCAGTCGTGTGTAGCGTTTG; chemistry not given here) [compound 133]
STAT3 Inhibition 2 nM (STAT3 mRNA [1]): 55.9
STAT3 Inhibition 20 nM (STAT3 mRNA [1]): 90.7
IC50 (STAT3 mRNA [1]): 2.24 nM
GAPDH Inhibition 20 nM (GAPDH): 14.00
STAT3 Max inihibition 24 nM (STAT3 mRNA [2]): 81.73

115 (CTGTTGATCGCAGCGAAGAT; chemistry not given here) [compound 115]
STAT3 Inhibition 2 nM (STAT3 mRNA [1]): 65.2
STAT3 Inhibition 20 nM (STAT3 mRNA [1]): 90.8
IC50 (STAT3 mRNA [1]): 0.796 nM
GAPDH Inhibition 20 nM (GAPDH): 3.00
STAT3 Max inihibition 24 nM (STAT3 mRNA [2]): 78.99

145 (GTCCTATGTGCTCGTCAAAG; chemistry not given here) [compound 145]
STAT3 Inhibition 2 nM (STAT3 mRNA [1]): 50.2
STAT3 Inhibition 20 nM (STAT3 mRNA [1]): 89.2
IC50 (STAT3 mRNA [1]): 3.06 nM
GAPDH Inhibition 20 nM (GAPDH): 17.00
STAT3 Max inihibition 24 nM (STAT3 mRNA [2]): 85.73

CC(C)(O)c1coc(S(=O)(=O)NC(=O)Nc2c3c(cc4c2CCC4)CCC3)c1 [MCC950]
induction of IL-1β in the serum of LPS-challenged mice (IL-1β): inhibited

124 (ATAGAGATTCTCGAAAGGTA; chemistry not given here) [compound 124]
STAT3 Inhibition 2 nM (STAT3 mRNA [1]): 62.6
STAT3 Inhibition 20 nM (STAT3 mRNA [1]): 83.3
IC50 (STAT3 mRNA [1]): 1.6 nM
GAPDH Inhibition 20 nM (GAPDH): 13.00
STAT3 Max inihibition 24 nM (STAT3 mRNA [2]): 86.46

131 (AGTCGTGTGTAGCGTTTGTT; chemistry not given here) [compound 131]
STAT3 Inhibition 2 nM (STAT3 mRNA [1]): 58.9
STAT3 Inhibition 20 nM (STAT3 mRNA [1]): 90.7
IC50 (STAT3 mRNA [1]): 2.83 nM
GAPDH Inhibition 20 nM (GAPDH): 12.00
STAT3 Max inihibition 24 nM (STAT3 mRNA [2]): 75.20

114 (GTTGATCGCAGCGAAGATCC; chemistry not given here) [compound 114]
STAT3 Inhibition 2 nM (STAT3 mRNA [1]): 66.4
STAT3 Inhibition 20 nM (STAT3 mRNA [1]): 87.0
IC50 (STAT3 mRNA [1]): 0.814 nM
GAPDH Inhibition 20 nM (GAPDH): 10.00
STAT3 Max inihibition 24 nM (STAT3 mRNA [2]): 84.94

107 (TAGCGTGGCTAGATCCACAT; chemistry not given here) [compound 107]
STAT3 Inhibition 2 nM (STAT3 mRNA [1]): 79.0
STAT3 Inhibition 20 nM (STAT3 mRNA [1]): 87.7
IC50 (STAT3 mRNA [1]): 0.037 nM
GAPDH Inhibition 20 nM (GAPDH): 8.00
STAT3 Max inihibition 24 nM (STAT3 mRNA [2]): 70.92

125 (CACGTACTTTCTGTACTTCT; chemistry not given here) [compound 125]
STAT3 Inhibition 2 nM (STAT3 mRNA [1]): 61.7
STAT3 Inhibition 20 nM (STAT3 mRNA [1]): 85.1
IC50 (STAT3 mRNA [1]): 2.3 nM
GAPDH Inhibition 20 nM (GAPDH): 14.00
STAT3 Max inihibition 24 nM (STAT3 mRNA [2]): 81.67

116 (CTCCTGTTGATCGCAGCGAA; chemistry not given here) [compound 116]
STAT3 Inhibition 2 nM (STAT3 mRNA [1]): 64.5
STAT3 Inhibition 20 nM (STAT3 mRNA [1]): 85.5
IC50 (STAT3 mRNA [1]): 1.85 nM
GAPDH Inhibition 20 nM (GAPDH): 16.00
STAT3 Max inihibition 24 nM (STAT3 mRNA [2]): 69.78
